Drawing on US6417394B2, “Specific salt forms of triphenylethylene derivatives as selective estrogen receptor modulators” (Bristol Myers Squibb Pharma Company, priority 2000, dated 2002), this text covers equilibrium aqueous solubility for three molecules.

The series can be described thus: aqueous equilibrium solubility. The conditions noted are these: aqueous suspension on a rotator for 48 hours at room temperature; filtered 0.45-micrometer PTFE; HPLC. It is filed as physicochemical. The method, then:
The aqueous equilibrium solubility of 3-[4(1,2-diphenyl-but-1-enyl)-phenyl]-acrylic acid, a SERM compound, and its meglumine and lysine salts were determined by placing aqueous suspensions of the corresponding compound on a rotator for 48 hours at room temperature. The samples were filtered using a 0.45-micrometer PTFE filter and analyzed by HPLC. The pH of the filtrate was also determined.

`CCC(=C(c1ccccc1)c1ccc(C=CC(=O)O)cc1)c1ccccc1` [3-[4(1,2-diphenyl-but-1-enyl)-phenyl]-acrylic acid (free aci] came in with an equilibrium aqueous solubility of 0.0086 mg/mL. The same measure for `CCC(=C(c1ccccc1)c1ccc(C=CC(=O)O)cc1)c1ccccc1` [3-[4(1,2-diphenyl-but-1-enyl)-phenyl]-acrylic acid (lysine s]: 0.4 mg/mL; for `CCC(=C(c1ccccc1)c1ccc(C=CC(=O)O)cc1)c1ccccc1` [3-[4(1,2-diphenyl-but-1-enyl)-phenyl]-acrylic acid (meglumin]: 0.7 mg/mL.
